From ChEMBL document CHEMBL4118280, “An imidazole based H-Phe-Phe-NH2 peptidomimetic with anti-allodynic effect in spared nerve injury mice” (Bioorg Med Chem Lett, 2018)
Calls of active or inactive are those of the source.

What was measured:
Mus musculus [1] = assay: Antiallodynic activity in ip dosed NMRI mouse model of spared nerve injury-induced mechanical allodynia assessed as pain relief administered 14 days post spared nerve injury surgery measured at 15 to 60 mins post dose by Von Frey filament assay; type: functional
Mus musculus [2] = assay: Antiallodynic activity in NMRI mouse model of spared nerve injury-induced mechanical allodynia assessed as pain relief at 12 umol/kg, ip administered 14 days post spared nerve injury surgery measured at 45 mins post dose by Von Frey filament assay; type: functional, organism-based
[3] = Apparent permeability from apical to basolateral side in human Caco2 cells at 100 uM after 15 to 120 mins by LC-MS analysis; type: ADME, cell-based; conditions: Caco-2
Mus musculus [4] = assay: Antiallodynic activity in NMRI mouse model of spared nerve injury-induced mechanical allodynia assessed as increase in mechanical threshold at 185 nmol/kg, ip administered 14 days post spared nerve injury surgery measured at 15 to 60 mins post dose by Von Frey filament assay; type: functional, organism-based
[5] = Cytotoxicity against Sprague-Dawley rat primary cortical cells assessed as reduction in […] at 10^-5 to 10^-9 M after 24 hrs by LDH assay; type: cell-based
Mus musculus [6] = assay: Antiallodynic activity in ip dosed NMRI mouse model of spared nerve injury-induced mechanical allodynia assessed as increase in mechanical threshold administered 14 days post spared nerve injury surgery by Von Frey filament assay; type: functional, organism-based
[7] = Apparent permeability from apical to basolateral side in human Caco2 cells assessed as mass balance at 100 uM after 15 to 120 mins by LC-MS analysis; type: ADME, cell-based; conditions: Caco-2, read-out: Activity
Mus musculus [8] = assay: Potency index, ratio of morphine ED50 to compound ED50 for antiallodynic activity in ip dosed NMRI mouse model of spared nerve injury-induced mechanical allodynia by Von Frey filament assay; type: functional
Mus musculus [9] = assay: Antiallodynic activity in NMRI mouse model of spared nerve injury-induced mechanical allodynia assessed as increase in mechanical threshold at 185 nmol/kg, ip administered 14 days post spared nerve injury surgery and co-treated with 1850 nmol/kg, ip D-SP1-7 by Von Frey filament assay; type: functional, organism-based
[10] = Efflux ratio of apparent permeability from basolateral to apical over apical to basolateral side in human Caco2 cells at 100 uM after 15 to 120 mins by LC-MS analysis; type: ADME, cell-based; conditions: Caco-2
Mus musculus [11] = assay: Antiallodynic activity in NMRI mouse model of spared nerve injury-induced mechanical allodynia assessed as increase in mechanical threshold at 1.85 to 1850 nmol/kg, ip administered 14 days post spared nerve injury surgery measured at 45 mins post dose by Von Frey filament assay; type: functional, organism-based
[12] = Apparent permeability from basolateral to apical side in human Caco2 cells at 100 uM after 15 to 120 mins by LC-MS analysis; type: ADME, cell-based; conditions: Caco-2
Mus musculus [13] = assay: Antiallodynic activity in NMRI mouse model of spared nerve injury-induced mechanical allodynia assessed as increase in mechanical threshold at 1.85 to 1850 nmol/kg, ip administered 14 days post spared nerve injury surgery measured at 30 mins post dose by Von Frey filament assay; type: functional, organism-based
[14] = Cytotoxicity against Sprague-Dawley rat primary cortical cells assessed as reduction in cell viability at 10^-5 to 10^-9 M after 24 hrs by MTT assay; type: cell-based
[15] = Half life in NMRI mouse plasma at 4 uM after 180 mins by LC-MS/MS analysis; type: ADME, cell-free
Mus musculus [16] = assay: Potency index, ratio of gabapentin ED50 to compound ED50 for antiallodynic activity in ip dosed NMRI mouse model of spared nerve injury-induced mechanical allodynia by Von Frey filament assay; type: functional
[17] = Half life in human plasma at 4 uM after 180 mins by LC-MS/MS analysis; type: ADME, cell-free
Mus musculus [18] = assay: Antiallodynic activity in NMRI mouse model of spared nerve injury-induced mechanical allodynia assessed as increase in mechanical threshold at 185 to 1850 nmol/kg, ip administered 14 days post spared nerve injury surgery measured at 15 to 60 mins post dose by Von Frey filament assay; type: functional, organism-based
[19] = Apparent permeability from basolateral to apical side in human Caco2 cells assessed as mass balance at 100 uM after 15 to 120 mins by LC-MS analysis; type: ADME, cell-based; conditions: Caco-2, read-out: Activity
Mus musculus [20] = assay: Antiallodynic activity in NMRI mouse model of spared nerve injury-induced mechanical allodynia assessed as pain relief at 585 umol/kg, ip administered 14 days post spared nerve injury surgery measured at 60 mins post dose by Von Frey filament assay; type: functional, organism-based
Mus musculus [21] = assay: Antiallodynic activity in NMRI mouse model of spared nerve injury-induced mechanical allodynia assessed as pain relief at 585 umol/kg, ip administered 14 days post spared nerve injury surgery measured at 30 mins post dose Von Frey filament assay; type: functional, organism-based
Mus musculus [22] = assay: Antiallodynic activity in NMRI mouse model of spared nerve injury-induced mechanical allodynia assessed as pain relief at 585 umol/kg, ip administered 14 days post spared nerve injury surgery measured at 180 mins post dose by Von Frey filament assay; type: functional, organism-based

In the case of `CN1CC[C@]23c4c5ccc(O)c4O[C@H]2[C@@H](O)C=C[C@H]3[C@H]1C5` [MORPHINE], the ED50 (Mus musculus [1]) is reported as 6.5 µmol/kg and the Activity (Mus musculus [2]) is reported as “Active”.

For `NC(=O)[C@H](Cc1ccccc1)NC(=O)c1[nH]cnc1-c1ccccc1`, the Papp A→B at 100 µM [3] was 0.84 ×10⁻⁶ cm/s, the Activity (Mus musculus [4]) was “Active” and the Activity [5] was “Non-Toxic”. The Activity (Mus musculus [6]) was “Dose-dependent effect”, the ED50 (Mus musculus [1]) was 0.21 µmol/kg and the recovery at 100 µM [7] was 65%. For the same compound, the “Ratio ED50” value (Mus musculus [8]) was 30, the Activity (Mus musculus [9]) was “inactive” and the efflux ratio at 100 µM [10] was 19. For the same compound, the Activity (Mus musculus [11]) was “inactive”, the Papp B→A at 100 µM [12] was 16 ×10⁻⁶ cm/s and the Activity (Mus musculus [13]) was “Active”. The Activity [14] was “Non-Toxic”, the half-life at 4 µM [15] was ≥ 180 min and the “Ratio ED50” value (Mus musculus [16]) was 1600. The half-life at 4 µM [17] was > 180 min, the Activity (Mus musculus [18]) was “Active” and the recovery at 100 µM [19] was 67%.

Compound `OC[C@@H](O)[C@@H](O)[C@H](O)[C@H](O)CO` [MANNITOL] has a Papp A→B at 100 µM [3] of 0.1 ×10⁻⁶ cm/s, a recovery at 100 µM [7] of 97 to 101% and an efflux ratio at 100 µM [10] of 1.4. It also gave a Papp B→A at 100 µM [12] of 0.2 ×10⁻⁶ cm/s and a recovery at 100 µM [19] of 99 to 103%.

Work on H-RPKPQQF-OH yielded a half-life at 4 µM [15] of 4.4 min.

With H-RPKPQQF-NH2 the Activity (Mus musculus [4]) was “Active” and the half-life at 4 µM [15] was 6.4 min.

With `NCC1(CC(=O)O)CCCCC1` [GABAPENTIN] the Activity (Mus musculus [20]) was “Active”, the ED50 (Mus musculus [1]) was 336 µmol/kg and the Activity (Mus musculus [21]) was “Active”. The Activity (Mus musculus [22]) was “inactive”.
